From US8969413B2 come the findings set out here.

In general, IC50 refers to the concentration needed to halve the response being measured. One may read the ED50 as the dose at which the effect has come halfway, by size or by number of responders.

Where two headings read alike, the source gives them in different places.

One experiment addresses T1, mGAT1 (Mus musculus, UniProt P31648).
T1 construct: expressed in transfected cells
The experiment is described as follows: [3H]GABA uptake at mouse GABA transporters, HEK-293 cells. Type of experiment: cell-based. The protocol:
(§1) Cortical neurons were cultured essentially as previously described by removing the neopallium of 15-day old NMRI embryos by dissection followed by mild trypsination. Hertz E, Yu A C H, Hertz L, Juurlink B H J and Schousboe A. Preparation of Primary Cultures of Mouse Cortical Neurons, in A Dissection and Tissue Culture Manual of the Nervous System (Shahar A, de Vellis J, Vernadakis A and Haber B eds) pp 183-186, Alan R. Liss, Inc., New York, 198. The neurons were cultured in 10% fetal calf serum and, after 48 h, cytosine arabinoside was added to a final concentration of 20 μM to prevent glial proliferation. Four cultures of stably transfected Human Embryonic Kidney (HEK)-293 cells expressing mGAT1-4 were prepared by the method previously reported. […] J Pharmacol Exp Ther. 2002, 302, 636-644 The stable cell lines are under the selection pressure of blasticidin-S at 5 μg/mL. Determinations of the IC50 values were conducted as described earlier. […] Radioactivity was measured using Microscint™ 20 scintillation fluid (PerkinElmer) and a Packard TopCount microplate scintillation counter.

For a further experiment, the target named is T2, mGAT2 (Mus musculus, UniProt P31651).
T2 construct: expressed in transfected cells
T2 sequence (P31651 whole entry): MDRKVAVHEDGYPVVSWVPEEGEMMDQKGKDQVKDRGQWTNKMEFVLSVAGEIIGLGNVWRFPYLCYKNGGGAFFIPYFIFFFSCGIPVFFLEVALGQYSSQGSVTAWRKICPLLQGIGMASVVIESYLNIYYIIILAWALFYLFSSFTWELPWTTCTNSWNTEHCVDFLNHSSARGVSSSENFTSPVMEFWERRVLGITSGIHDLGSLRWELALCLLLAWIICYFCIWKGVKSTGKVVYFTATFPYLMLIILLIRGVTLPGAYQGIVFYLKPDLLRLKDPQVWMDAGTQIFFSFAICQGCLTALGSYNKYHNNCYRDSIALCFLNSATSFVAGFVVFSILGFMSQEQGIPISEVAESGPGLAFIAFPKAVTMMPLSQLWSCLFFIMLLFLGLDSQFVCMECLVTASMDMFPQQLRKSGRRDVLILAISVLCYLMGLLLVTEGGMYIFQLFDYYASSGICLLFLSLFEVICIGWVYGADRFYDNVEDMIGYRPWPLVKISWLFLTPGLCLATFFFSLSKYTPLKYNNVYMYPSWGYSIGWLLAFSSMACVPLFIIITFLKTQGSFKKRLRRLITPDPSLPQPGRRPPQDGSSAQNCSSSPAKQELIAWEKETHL
The description is as above. Type of experiment: cell-based. As for the experimental part:
as §1

The target of a further experiment is T3, mGAT3 (Mus musculus, UniProt P31649).
T3 construct: expressed in transfected cells
T3 sequence (P31649 whole entry): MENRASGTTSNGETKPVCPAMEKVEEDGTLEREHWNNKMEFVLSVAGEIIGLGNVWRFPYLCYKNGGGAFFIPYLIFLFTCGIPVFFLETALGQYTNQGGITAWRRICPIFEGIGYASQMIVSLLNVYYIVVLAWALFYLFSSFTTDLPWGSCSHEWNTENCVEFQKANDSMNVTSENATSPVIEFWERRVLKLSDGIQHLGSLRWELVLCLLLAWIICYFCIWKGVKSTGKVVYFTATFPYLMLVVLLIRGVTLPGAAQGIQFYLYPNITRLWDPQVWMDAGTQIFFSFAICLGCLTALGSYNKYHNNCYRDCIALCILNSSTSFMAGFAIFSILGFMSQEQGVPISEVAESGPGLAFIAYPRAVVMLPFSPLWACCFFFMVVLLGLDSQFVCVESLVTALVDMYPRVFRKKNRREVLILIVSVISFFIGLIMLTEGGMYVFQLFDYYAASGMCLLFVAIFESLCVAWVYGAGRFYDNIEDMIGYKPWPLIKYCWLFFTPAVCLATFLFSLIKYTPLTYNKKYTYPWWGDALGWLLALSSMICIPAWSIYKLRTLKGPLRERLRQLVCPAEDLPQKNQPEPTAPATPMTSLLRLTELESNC
The description is as above. The format is cell-based. As for the experimental part: as §1

A further experiment has as its target T4, mGAT4 (Mus musculus, UniProt P31650).
T4 construct: expressed in transfected cells
Described as above. Type of experiment: cell-based. As for the experimental part: as §1

The next experiment relates to cortical neurons. Nature of the experiment: [3H]GABA uptake in cultured cortical neurons. The format is cell-based. The note with it: Mus musculus, Cortical neurone; read-out: neuron uptake IC50. The protocol:
as §1

The subject of experiment [1] is Mice. Nature of the experiment: minimal clonic seizure (6 Hz) test. Type of experiment: in vivo. The conditions noted are these: Single IP drug dose, 3 seconds, corneal electrode; for ED50: Mus musculus, ip. The source says: Some clinically useful AEDs are ineffective in the standard MES and scMET tests but still have anticonvulsant activities in vivo. In order to identify potential AEDs with this profile, compounds may be tested in the minimal clonic seizure (6 Hz or ‘psychomotor’) test (Barton et al., 2001). […] Test compounds are pre-administered to mice via i.p. injection. At varying times, individual mice (four per time point) are challenged with sufficient current delivered through corneal electrodes to elicit a psychomotor seizure in 97% of animals (32 mA for 3 s) (Toman et al., 1952). Untreated mice will display seizures characterized by a minimal clonic phase followed by stereotyped, automatistic behaviors described originally as being similar to the aura of human patients with partial seizures. Animals not displaying this behavior are considered protected. The test may be evaluated quantitatively by measuring the responses at varying doses at a determined time of peak effect (TPE). This test may also be conducted at 22 and 44 mA if requested by ASP staff.

The test system of experiment [2] is Mice. The experiment is described as follows: corneal kindling. The format is in vivo. The source says:
Mice are kindled electrically with 3 sec stimulation, 8 mA, 60 Hz, and corneal electrodes to a criterion of 10 consecutive Stage 5 seizures (facial clonus and head nodding progressing to forelimb clonus, and finally rearing and falling accompanied by a generalized clonic seizure as described by Racine). Stage 5 is generally reached after twice daily stimulation for 8 days. With continued stimulation once a day, animals usually progress to a reproducible Stage 5 after 10-14 additional days. At least 72 hours after the mice have been kindled, the test substance is administered either i.p. or p.o. and, at the previously determined TPE, each animal is given the electrical stimulus indicated above. Following stimulation, the animals are observed for the presence or absence of the rearing and falling criteria of a Stage 5 seizure. Treated animals not displaying a Stage 3, 4, or 5 seizure are considered protected. The dose of the test substance is varied between the limits of 0 and 100% efficacy, and the ED50 (mean effective dose) and 95% confidence intervals calculated by probit analysis. Mean values and the S.E.M. are calculated for the length of clonus and seizure duration and p values are determined by the Student's t-test

For experiment [3], the system named is Mice. The experiment is described as follows: subcutaneous bicuculline (scBIC). The note with it: Single IP drug dose, 2.7 mg/kg BIC; from 10-200 mg/kg; inconclusive?
The format is in vivo. The protocol: Bicuculline (Bic) and Picrotoxin (Pic) are chemoconvulsants that cause clonic seizures in a manner similar to Metrazol (see scMET test). […] Therefore, as much as possible it is useful to differentiate novel AEDs pharmacologically. […]. At a previously determined time of peak effect (TPE), the animals are given a subcutaneous injection of either of the noted chemo-convulsants using the convulsive dose (CD97—a dose of 2.7 or 2.5 mg/kg, for Bic and Pic, respectively). The experimental animals are placed in isolation cages to minimize possible crowding stresses (Swinyard et al., 1961) and observed for the next 30 minutes (for Bic) or 45 minutes (for Pic) for the presence or absence of a seizure. An episode of clonic spasms, approximately 3-5 seconds, of the fore and/or hindlimbs, jaws, or vibrissae is used as the experimental endpoint.

Experiment [4] concerns Mice. The experiment is described as follows: maximal electrical shock (MES) model. The format is in vivo. The conditions noted are these: Single IP dose, 50 mA, 2 seconds, corneal electrode. The source says:
The MES is a model for generalized tonic-clonic seizures and provides an indication of a compound's ability to prevent seizure spread when all neuronal circuits in the brain are maximally active. These seizures are highly reproducible and are electrophysiologically consistent with human seizures. For all tests based on MES convulsions, 60 Hz of alternating current (50 mA in mice) is delivered for 2 s by corneal electrodes which have been primed with an electrolyte solution containing an anesthetic agent (0.5% tetracaine HCL). Mice are tested at various intervals following doses of 30, 100 and 300 mg/kg of test compound given by i.p. injection of a volume of 0.01 mL/g. Other doses can be used if indicated by previously known pharmacology. An animal is considered “protected” from MES-induced seizures upon abolition of the hindlimb tonic extensor component of the seizure (Swinyard et al., 1989; White et al., 1995a; White et al., 1995b).

The subject of another experiment is Sprague-Dawley rats. The conditions noted are these: for time spent in chamber, first printed value / time spent in chamber, second printed value: 1.0 mg/kg i.p.
Setting [5] is: cocaine/saline+compound pairings, cocaine 20 mg/kg.
Where [6] appears, read: saline/Compound 2 (CPP-115) pairings.

T4 sequence (P31650 whole entry): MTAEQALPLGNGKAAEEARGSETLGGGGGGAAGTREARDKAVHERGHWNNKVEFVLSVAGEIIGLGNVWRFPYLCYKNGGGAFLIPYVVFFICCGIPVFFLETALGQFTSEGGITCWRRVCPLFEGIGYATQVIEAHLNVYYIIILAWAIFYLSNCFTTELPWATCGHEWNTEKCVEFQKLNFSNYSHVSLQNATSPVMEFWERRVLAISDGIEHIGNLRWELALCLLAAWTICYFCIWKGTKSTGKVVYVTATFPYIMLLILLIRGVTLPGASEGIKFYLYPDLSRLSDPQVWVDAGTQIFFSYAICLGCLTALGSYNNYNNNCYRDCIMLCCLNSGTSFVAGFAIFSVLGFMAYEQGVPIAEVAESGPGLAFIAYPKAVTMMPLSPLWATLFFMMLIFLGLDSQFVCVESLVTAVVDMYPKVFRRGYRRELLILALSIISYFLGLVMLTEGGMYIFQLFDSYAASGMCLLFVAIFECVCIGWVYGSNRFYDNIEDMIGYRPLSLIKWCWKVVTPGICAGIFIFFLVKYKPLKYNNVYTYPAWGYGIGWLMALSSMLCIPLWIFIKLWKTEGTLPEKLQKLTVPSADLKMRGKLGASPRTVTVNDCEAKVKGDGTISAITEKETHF

Turning to `N[C@H]1C[C@@H](C(=O)O)CC1=C(F)F` [CPP-115], the IC50 against mGAT1, on mGAT2, against mGAT3, against mGAT4 and in the experiment on cortical neurons was above 1 mM throughout. Besides, the ED50 was 5.2 mg/kg in the experiment on Mice [1] (32 mA); 28.4 mg/kg with Mice [1] (44 mA); 20.1 mg/kg in the experiment on Mice [2] (ip, 192 h, read-out: Corn. Kind. ED50); 58.9 mg/kg in the experiment with Mice [4] (Mus musculus). In addition, the “6 Hz TPE” value in the experiment on Mice [1] (32 mA) and with Mice [1] (44 mA) was “TPE 4 hours” each time. Besides, the “Corn. Kind. TPE” value with Mice [2] (Single IP drug dose, primed @ 8 mA, 60 Hz, 3 secs, for 8 days) was “TPE 4 hours”. The scBIC protected entry in the experiment on Mice [3] is listed as “About 50% protected”. In addition, the “MES TPE” value in the experiment on Mice [4] was “TPE 6 hours”. In addition, the “expression of cocaine-induced CPP” value in the experiment with Sprague-Dawley rats (1.0 mg/kg i.p. 2.5 h before test, cocaine 20 mg/kg, listed as 2) is given as “blocked the expression of cocaine-induced CPP”. Further, the “effect on cocaine-induced CPP relative to vigabatrin” value in the experiment with Sprague-Dawley rats (1.0 mg/kg versus vigabatrin 300 mg/kg) was 300 times. The “time spent in chamber, first printed value” with Sprague-Dawley rats (setting [5]) is 7.9 ± 1.5 min; in the experiment on Sprague-Dawley rats (setting [6]), 8.1 ± 3.2 min. Also, the “time spent in chamber, second printed value” with Sprague-Dawley rats (setting [5]) came out at 7.1 ± 1.9 min; with Sprague-Dawley rats (setting [6]), 6.9 ± 3.9 min.
